Measurements: PubChem BioAssay (NCI)
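Exposure lasted 48 hours, with cells grown in 96-well plates and compounds tested at five concentrations. TGI: concentration producing complete growth inhibition.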

What was measured:
Assay in all cases: growth of human tumour cells (NCI), 48 h
SK-MEL-5 melanoma = tested on: SK-MEL-5 melanoma
SW-620 colon = tested on: SW-620 colon
ACHN renal = tested on: ACHN renal
UO-31 renal = tested on: UO-31 renal
RPMI-8226 leukemia = tested on: RPMI-8226 leukemia
CCRF-CEM leukemia = tested on: CCRF-CEM leukemia
SF-539 CNS = tested on: SF-539 CNS
SF-268 CNS = tested on: SF-268 CNS
HCT-116 colon = tested on: HCT-116 colon
IGROV1 ovarian = tested on: IGROV1 ovarian
OVCAR-5 ovarian = tested on: OVCAR-5 ovarian
K-562 leukemia = tested on: K-562 leukemia
MDA-MB-435 = tested on: MDA-MB-435
COLO 205 colon = tested on: COLO 205 colon
HOP-92 NSCLC = tested on: HOP-92 NSCLC
A498 renal = tested on: A498 renal
NCI-H522 lung = tested on: NCI-H522 lung
HT29 colon = tested on: HT29 colon
EKVX NSCLC = tested on: EKVX NSCLC
OVCAR-4 ovarian = tested on: OVCAR-4 ovarian
UACC-62 melanoma = tested on: UACC-62 melanoma
HS 578T breast = tested on: HS 578T breast
A549 NSCLC = tested on: A549 NSCLC
HOP-62 NSCLC = tested on: HOP-62 NSCLC
SN12C renal = tested on: SN12C renal
OVCAR-8 ovarian = tested on: OVCAR-8 ovarian
SF-295 CNS = tested on: SF-295 CNS
SK-OV-3 ovarian = tested on: SK-OV-3 ovarian
DU-145 prostate = tested on: DU-145 prostate
OVCAR-3 ovarian = tested on: OVCAR-3 ovarian
SR leukemia = tested on: SR leukemia
MOLT-4 leukemia = tested on: MOLT-4 leukemia
SNB-75 CNS = tested on: SNB-75 CNS
HL-60(TB) leukemia = tested on: HL-60(TB) leukemia
PC-3 prostate = tested on: PC-3 prostate
M14 melanoma = tested on: M14 melanoma
NCI-H226 lung = tested on: NCI-H226 lung
MDA-N = tested on: MDA-N
U251 CNS = tested on: U251 CNS
HCT-15 colon = tested on: HCT-15 colon
SK-MEL-28 melanoma = tested on: SK-MEL-28 melanoma
NCI-H23 lung = tested on: NCI-H23 lung
KM12 colon = tested on: KM12 colon
MALME-3M melanoma = tested on: MALME-3M melanoma
SNB-19 CNS = tested on: SNB-19 CNS
CAKI-1 renal = tested on: CAKI-1 renal
T-47D breast = tested on: T-47D breast
MDA-MB-231 breast = tested on: MDA-MB-231 breast
BT-549 breast = tested on: BT-549 breast
786-0 renal = tested on: 786-0 renal
RXF 393 renal = tested on: RXF 393 renal
UACC-257 melanoma = tested on: UACC-257 melanoma
MCF7 breast = tested on: MCF7 breast
LOX IMVI melanoma = tested on: LOX IMVI melanoma
TK-10 renal = tested on: TK-10 renal
NCI/ADR-RES ovarian = tested on: NCI/ADR-RES ovarian
NCI-H460 lung = tested on: NCI-H460 lung

Measured: TGI

COC1CC(C)(NC(C)=O)C2OC(c3ccccc3)OCC2O1 (configuration not stated)
> 100 µM: SK-MEL-5 melanoma | SW-620 colon | ACHN renal | UO-31 renal | RPMI-8226 leukemia | CCRF-CEM leukemia | SF-539 CNS | SF-268 CNS | HCT-116 colon | IGROV1 ovarian | OVCAR-5 ovarian | K-562 leukemia | MDA-MB-435 | COLO 205 colon | HOP-92 NSCLC | A498 renal | NCI-H522 lung | HT29 colon | EKVX NSCLC | OVCAR-4 ovarian | UACC-62 melanoma | HS 578T breast | A549 NSCLC | HOP-62 NSCLC | SN12C renal | OVCAR-8 ovarian | SF-295 CNS | SK-OV-3 ovarian | DU-145 prostate | OVCAR-3 ovarian | SR leukemia | MOLT-4 leukemia | SNB-75 CNS | HL-60(TB) leukemia | PC-3 prostate | M14 melanoma | NCI-H226 lung | MDA-N | U251 CNS | HCT-15 colon | SK-MEL-28 melanoma | NCI-H23 lung | KM12 colon | MALME-3M melanoma | SNB-19 CNS | CAKI-1 renal | T-47D breast | MDA-MB-231 breast | BT-549 breast | 786-0 renal | RXF 393 renal | UACC-257 melanoma | MCF7 breast | LOX IMVI melanoma | TK-10 renal | NCI/ADR-RES ovarian | NCI-H460 lung
